According to patent publication US9701707B2, “Methods of synthesizing substituted purine compounds” (Epizyme, Inc., priority 2013, dated 2017):

What was measured:
Type in all cases: physicochemical
[1] = Dynamic vapor sorption (DVS) hygroscopicity; details: between 0% and 95% RH, 25° C.
Procedure: Form A may be observed EP-1. […] (peak temperature) which is accompanied by 5.9 wt % weight loss up to ˜150° C. in the TGA curve (FIG. 3). […] Form A is hygroscopic as indicated by water adsorption of 5.8 wt % at 80% RH measured by dynamic vapor sorption (DVS) (FIG. 4). A solid is considered moderately hygroscopic when water uptake at 25° C./80% RH is between 2-15 wt % based on criteria of European Pharmacopeia.
Form B of EP-1 trihydrate (x is 3) is a trihydrate as confirmed by single crystal analysis. The experimental XRPD pattern of Form B matches well with the simulated one from single crystal data (FIG. 6). This was also confirmed by DSC and TGA data (FIG. 7 and FIG. 8, respectively). DSC data indicates Form B dehydrates at ˜132° C. […] Form B is slightly hygroscopic as evidenced by a weight change of ˜0.3% between 0% and 95% RH (FIG. 9), (data collection was programmed from 95% RH-0% RH-95% RH at a step size of 10% RH at 25° C.).

[2] = Equilibrium solubility in aqueous media; details: for Solubility: LOD 0.1 μg/ml
Procedure: Approximately 10 mg of Form B was weighed into a 1-ml glass vial followed by addition of 0.5 ml relevant media. Each sample was continuously stirred using a magnetic stir bar at 25° C. for 24 h. The suspension was then filtered using a nylon membrane with a pore diameter of 0.22 μm. The filtrates were diluted for HPLC analysis and final pH was measured. The solid residue of each sample was collected for XRPD analysis.
The solubilities of Form B in water and five different pH values at 25° C. were determined by HPLC after 24 h equilibration. Solubility data for Form B was obtained across the physiological pH by using buffer solutions from pH 2 to pH 10.
Preparation of pH Buffers • pH 2: 0.01N HCl solution. Dilute 1 ml of 1 N HCl with H2O up to a total volume of 100 ml. Measure the pH and precisely adjust to pH=2.00 using a few microliters of 1N HCl or 1N NaOH. • pH 4: 50 mM Na citrate buffer. Prepare a 50 mM citric acid solution by diluting 10 ml of 1N citric acid with H2O up to a total volume of 200 ml. Slowly add solid NaOH under stirring to increase the pH to 3.8-4.0 and use a few microliters of 1N NaOH for final adjustment to pH 4.00. • pH 6: 50 mM Na citrate buffer. Use the same procedure as the pH 4 buffer and adjust to pH=6.00 • pH 8: 50 mM Na phosphate buffer. Prepare a 50 mM NaH2PO4 solution by dissolving 6.00 g NaH2PO4 in 1 L of H2O and a 50 mM Na2HPO4 solution by dissolving 7.10 g in 1 L of H2O. Mix 10 ml of the NaH2PO4 solution with 140 ml of the Na2HPO4 solution in a beaker. Adjust to pH 8.00 by addition of small amounts of 50 mM NaH2PO4 or Na2HPO4 solution. • pH 10: 50 mM Na carbonate buffer. Prepare a 50 mM carbonate solution by dissolving 840 mg of sodium bicarbonate (NaHCO3) in about 180 ml of H2O. Slowly adjust the pH to 10.0±0.1 by addition of 1N NaOH. Add water to reach the total volume of 200 ml and adjust to pH 10.00 with 1N NaOH.

[3] = Solid-state photostability
Procedure: The solid-state photostability of EP-1 trihydrate (x is 3) was assessed upon exposure to UV/Vis light according to ICH guidelines. Loss of claim %, loss of area %, and degradates were evaluated versus dark control samples.
Solid-State Photostability: Weighed ˜5 mg Form B into glass vials with 2 vials covered with foil as the controls. Put these 2 samples with their controls into chamber and expose them to Vis (10 Kilo lux) for 120 hrs followed by UV (10 W/m^2) for 20 hrs (per ICH guidelines). At the end of Vis, take 1 sample and 1 control out for analysis and the others were taken out after both Vis and UV exposure.

Solution photostability = test: Solution photostability
Procedure: Solution Photostability: Weighed ˜1 mg of Form B and dissolved in 3 solutions at different pHs (0.01 N HCl, 0.01 N NaOH and water). Methanol was added as a co-solvent to dissolve Form B in solutions (i.e., 10% (v/v) methanol in 0.01 N HCl, 20% (v/v) in water and 30% (v/v) in 0.01 N NaOH), the final concentration was 0.1 mg/mL. For each solution, 1 sample and 1 control covered in foil were put into the photo chamber for Vis study (2 vials total for each solution). Measure the concentration and monitor the degradation.

[4] = Bulk control (covered with foil), Vis Stability (1.2 Mil lux-hours)
[5] = Bulk control (covered with foil), Vis-UV stability (1.2 Mil lux-hours + 200 Watt-hours/m^2)
[6] = Bulk, Vis Stability (1.2 Mil lux-hours)
[7] = Bulk, Vis-UV stability (1.2 Mil lux-hours + 200 Watt-hours/m^2)
[8] = 0.01N HCl Dark, Vis Stability (1.2 Mil lux-hours), final pH 2.1
[9] = 0.01N HCl Dark, Vis-UV Stability (1.2 Mil lux-hours + 200 Watt-hours/m^2), final pH 2.1
[10] = 0.01N HCl Light, Vis Stability (1.2 Mil lux-hours), final pH 2.1
[11] = 0.01N HCl Light, Vis-UV Stability (1.2 Mil lux-hours + 200 Watt-hours/m^2), final pH 2.1
[12] = 0.01N NaOH Dark, Vis Stability (1.2 Mil lux-hours), final pH 11.6, precipitation observed
[13] = 0.01N NaOH Dark, Vis-UV Stability (1.2 Mil lux-hours + 200 Watt-hours/m^2), final pH 11.7, precipitation observed
[14] = 0.01N NaOH Light, Vis Stability (1.2 Mil lux-hours), final pH 11.7, precipitation observed
[15] = 0.01N NaOH Light, Vis-UV Stability (1.2 Mil lux-hours + 200 Watt-hours/m^2), final pH 11.7, precipitation observed
[16] = H2O Dark, Vis Stability (1.2 Mil lux-hours), final pH 7.7
[17] = H2O Dark, Vis-UV Stability (1.2 Mil lux-hours + 200 Watt-hours/m^2), final pH 8.1
[18] = H2O Light, Vis Stability (1.2 Mil lux-hours), final pH 7.3
[19] = H2O Light, Vis-UV Stability (1.2 Mil lux-hours + 200 Watt-hours/m^2), final pH 7.3

weight change [1]: ~0.3% | Solubility ([2]; 50 mM Na carbonate buffer, pH (initial) 10.0, pH (final) 10.0, RT, 24 h): <LOD | Solubility ([2]; 50 mM Na phosphate buffer, pH (initial) 8.0, pH (final) 8.0, RT, 24 h): <LOD^§ | solubility at 24 h ([2]; 50 mM sodium citrate buffer, 25 °C, pH 6, aqueous buffer, thermodynamic from solid, 50 mM sodium citrate, pH (initial) 6.0, pH (final) 6.0, RT): 80 µg/mL | Remaining Solid ([2]; Water, RT, 24 h, XRPD): Form B | % area (100% − TRS%) [3, 4]: 99.7% | % claim (Cs/Ci × 100%) [3, 4]: 100.0% | % area (100% − TRS%) [3, 5]: 99.8% | % claim (Cs/Ci × 100%) [3, 5]: 100.0% | % area (100% − TRS%) [3, 6]: 99.8% | % claim (Cs/Ci × 100%) [3, 6]: 101.1% | % area (100% − TRS%) [3, 7]: 99.8% | % claim (Cs/Ci × 100%) [3, 7]: 99.6% | solid-state photostability ([3]; exposure to full ICH photostability requirement, versus dark control): stable | % area (100% − TRS%) (Solution photostability; [8]): 99.4% | % claim (Cs/Ci × 100%) (Solution photostability; [8]): 100.0% | % area (100% − TRS%) (Solution photostability; [9]): 99.9% | % claim (Cs/Ci × 100%) (Solution photostability; [9]): 100.0% | % area (100% − TRS%) (Solution photostability; [10]): 98.5% | % claim (Cs/Ci × 100%) (Solution photostability; [10]): 98.8% | % area (100% − TRS%) (Solution photostability; [11]): 99.9% | % claim (Cs/Ci × 100%) (Solution photostability; [11]): 99.9% | % area (100% − TRS%) (Solution photostability; [12]): 99.7% | % claim (Cs/Ci × 100%) (Solution photostability; [12]): 100.0% | % area (100% − TRS%) (Solution photostability; [13]): 100.0% | % claim (Cs/Ci × 100%) (Solution photostability; [13]): 100.0% | % area (100% − TRS%) (Solution photostability; [14]): 99.6% | % claim (Cs/Ci × 100%) (Solution photostability; [14]): 44.5% | % area (100% − TRS%) (Solution photostability; [15]): 99.3% | % claim (Cs/Ci × 100%) (Solution photostability; [15]): 66.3% | % area (100% − TRS%) (Solution photostability; [16]): 100.0% | % claim (Cs/Ci × 100%) (Solution photostability; [16]): 100.0% | % area (100% − TRS%) (Solution photostability; [17]): 100.0% | % claim (Cs/Ci × 100%) (Solution photostability; [17]): 100.0% | % area (100% − TRS%) (Solution photostability; [18]): 99.6% | % claim (Cs/Ci × 100%) (Solution photostability; [18]): 98.5% | % area (100% − TRS%) (Solution photostability; [19]): 99.3% | % claim (Cs/Ci × 100%) (Solution photostability; [19]): 94.7% | solution photostability (Solution photostability; in water and 0.01N HCl solution, exposure to UV/Vis): stable
Structure (SMILES): CC(C)N(C[C@H]1O[C@@H](n2cnc3c(N)ncnc32)[C@H](O)[C@@H]1O)[C@H]1C[C@@H](CCc2nc3cc(C(C)(C)C)ccc3[nH]2)C1 [Form B, (2R,3R,4S,5R)-2-(6-amino-9H-purin-9-yl)-5-((((1r,3S)-3-(2-(5-(tert-butyl)-1H-benzo[d]imidazol-2-yl)ethyl)cyclobutyl)(isopropyl)amino)methyl)tetrahydrofuran-3,4-diol trihydrate]
